“And” between values parts separate entries of the source, which are not always exact repeats. Equal entries are not always repeated.
Key:
KRAS WT = KRAS WT (Homo sapiens (Human), UniProt P01116+P62937); experiment: Ras-Raf (BRAF RBD) disruption / FRET / MOA assay, KRAS WT; type: biochemical; conditions: read-out: IC50* KRAS WT FRET data
Outline: (§1)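 A 10-point, 3-fold dilution series topping at 30 μM final was incubated 3 h at 25° C with the Ras/cyclophilin A/BRAF RBD mixture.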

KRAS G12D = KRAS G12D (Homo sapiens (Human), UniProt P01116+P62937, G12D); experiment: Ras-Raf (BRAF RBD) disruption / FRET / MOA assay, KRAS G12D; type: biochemical; conditions: Ras-Raf disruption/FRET/MOA assay; class symbols; read-out: KRAS G12D FRET data IC50
Sequence of KRAS G12D (P01116-2 other isoform, or with tags, fused parts or gaps G12D): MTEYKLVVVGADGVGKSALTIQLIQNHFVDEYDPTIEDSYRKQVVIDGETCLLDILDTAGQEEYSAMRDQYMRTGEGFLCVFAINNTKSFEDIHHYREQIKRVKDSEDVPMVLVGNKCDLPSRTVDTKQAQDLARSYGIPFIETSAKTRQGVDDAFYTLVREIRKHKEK
Sequence of KRAS G12D (P62937 whole entry): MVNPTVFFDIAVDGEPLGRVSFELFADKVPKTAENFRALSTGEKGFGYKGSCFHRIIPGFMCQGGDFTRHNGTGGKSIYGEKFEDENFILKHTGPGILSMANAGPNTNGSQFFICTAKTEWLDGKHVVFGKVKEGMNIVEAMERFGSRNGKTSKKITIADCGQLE
Outline: as §1

NRAS G12C = NRAS G12C (Homo sapiens (Human), UniProt P01111+P62937, G12C); experiment: Ras-Raf (BRAF RBD) disruption / FRET / MOA assay, NRAS G12C; type: biochemical; conditions: read-out: IC50* NRAS G12C FRET data
Sequence of NRAS G12C (P01111 whole entry G12C): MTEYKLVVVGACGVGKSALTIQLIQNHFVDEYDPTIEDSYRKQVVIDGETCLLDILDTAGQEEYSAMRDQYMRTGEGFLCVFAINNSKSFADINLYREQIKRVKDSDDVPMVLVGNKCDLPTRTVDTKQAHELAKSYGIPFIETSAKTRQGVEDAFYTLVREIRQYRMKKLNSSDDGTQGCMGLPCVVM
Sequence of NRAS G12C (P62937 whole entry): as the sequence (P62937 whole entry) above
Outline: as §1

KRAS Q61H = KRAS Q61H (Homo sapiens (Human), UniProt P01116+P62937, Q61H); experiment: Ras-Raf (BRAF RBD) disruption / FRET / MOA assay, KRAS Q61H; type: biochemical; conditions: Ras-Raf disruption/FRET/MOA assay; class symbols; read-out: KRAS Q61H FRET data IC50
Sequence of KRAS Q61H (P01116-2 other isoform, or with tags, fused parts or gaps Q61H): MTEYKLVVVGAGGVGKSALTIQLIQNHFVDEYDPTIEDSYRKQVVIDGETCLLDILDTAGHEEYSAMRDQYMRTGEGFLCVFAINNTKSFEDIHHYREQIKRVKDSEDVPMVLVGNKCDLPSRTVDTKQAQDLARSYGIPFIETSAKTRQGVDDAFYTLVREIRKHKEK
Sequence of KRAS Q61H (P62937 whole entry): as the sequence (P62937 whole entry) above
Outline: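 Compounds (30 μM top final, 10-point 3-fold dilutions) incubated 3 h at 25° C with nucleotide-loaded Ras, cyclophilin A and BRAF RBD. Detection with 10 nM anti-His Eu-W1024 and 50 nM anti-GST allophycocyanin over another 1.5 h. Lowered TR-FRET ratio relative to DMSO wells gives IC50.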

K-Ras G13C = K-Ras G13C (Homo sapiens (Human), UniProt P01116+P62937, G13C); experiment: Ras-Raf (BRAF RBD) disruption / FRET / MOA assay, KRAS G13C; type: biochemical; conditions: KRAS G13C; Ras-Raf disruption/FRET/MOA assay; read-out: IC50* KRAS G13C FRET data
Sequence of K-Ras G13C (P01116-2 other isoform, or with tags, fused parts or gaps G13C): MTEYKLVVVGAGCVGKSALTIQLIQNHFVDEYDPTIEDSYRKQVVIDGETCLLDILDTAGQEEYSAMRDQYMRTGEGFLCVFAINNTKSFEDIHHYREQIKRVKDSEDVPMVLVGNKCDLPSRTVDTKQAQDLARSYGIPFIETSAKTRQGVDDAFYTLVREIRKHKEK
Sequence of K-Ras G13C (P62937 whole entry): as the sequence (P62937 whole entry) above
Outline: as §1

NCI-H358 (K-Ras G12C) = experiment: CellTiter-Glo cell viability assay, NCI-H358; type: cell-based, human; conditions: Homo sapiens, NCI-H358, 120 h, NCI-H358, 5-day treatment; class symbols; read-out: Additional H358 Cell Viability assay data (K-Ras G12C, IC50)
Outline: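 Cells seeded, compound added directly, 5-day exposure. Plates to RT ~30 min, CellTiter-Glo luminescence read. Normalized to DMSO avg (x100); 4-parameter logistic fit.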

KRAS G13D = KRAS G13D (Homo sapiens (Human), UniProt P01116+P62937, G13D); experiment: Ras-Raf (BRAF RBD) disruption / FRET / MOA assay, KRAS G13D; type: biochemical; conditions: read-out: IC50* KRAS G13D FRET data
Sequence of KRAS G13D (P01116-2 other isoform, or with tags, fused parts or gaps G13D): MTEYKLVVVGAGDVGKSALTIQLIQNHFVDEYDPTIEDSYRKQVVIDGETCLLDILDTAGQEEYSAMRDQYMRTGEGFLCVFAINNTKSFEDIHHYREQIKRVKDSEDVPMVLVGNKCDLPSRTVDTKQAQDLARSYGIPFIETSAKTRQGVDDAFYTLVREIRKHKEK
Sequence of KRAS G13D (P62937 whole entry): as the sequence (P62937 whole entry) above
Outline: as §1

NRAS Q61R = NRAS Q61R (Homo sapiens (Human), UniProt P01111+P62937, Q61R); experiment: Ras-Raf (BRAF RBD) disruption / FRET / MOA assay, NRAS Q61R; type: biochemical; conditions: NRAS Q61R; Ras-Raf disruption/FRET/MOA assay; read-out: IC50* NRAS Q61R FRET data
Sequence of NRAS Q61R (P01111 whole entry Q61R, canonical isoform): as the sequence (P01111 whole entry G12C) above, with C12G, Q61R counted along it
Sequence of NRAS Q61R (P62937 whole entry, canonical isoform): as the sequence (P62937 whole entry) above
Procedure: (§2) The purpose of this biochemical assay is to measure the ability of test compounds to facilitate ternary complex formation between a nucleotide-loaded Ras isoform and cyclophilin A; the resulting ternary complex disrupts binding to a BRAF^RBD construct, inhibiting Ras signaling through a RAF effector.
(§3) […]. Compound is present in plate wells as a 10-point 3-fold dilution series starting at a final concentration of 30 μM. After incubation at 25° C. for 3 hours, a mixture of Anti-His Eu-W1024 and anti-GST allophycocyanin is then added to assay sample wells at final concentrations of 10 nM and 50 nM, respectively, and the reaction incubated for an additional 1.5 hours. […] Compounds that facilitate disruption of a Ras:RAF complex are identified as those eliciting a decrease in the TR-FRET ratio relative to DMSO control wells.
(§4) Note—The following protocol describes a procedure for monitoring disruption of K-Ras G12C (GMP-PNP) binding to BRAF^RBD by a compound of the invention. This protocol may also be executed substituting other Ras proteins or nucleotides.
(§5) The purpose of this biochemical assay was to measure the ability of test compounds to facilitate ternary complex formation between a nucleotide-loaded K-Ras isoform and Cyclophilin A; the resulting ternary complex disrupts binding to a BRAF^RBD construct, inhibiting K-Ras signaling through a RAF effector. Data is reported as IC50 values.
as §3, with “Compound was” for “Compound is”, “allophycocyanin was” for “allophycocyanin is”, “a K-Ras:RAF” for “a Ras:RAF”, “complex were” for “complex are”

NRAS WT = NRAS WT (Homo sapiens (Human), UniProt P01111+P62937); experiment: Ras-Raf (BRAF RBD) disruption / FRET / MOA assay, NRAS WT; type: biochemical; conditions: read-out: IC50* NRAS WT FRET data
Sequence of NRAS WT (P01111 whole entry): as the sequence (P01111 whole entry G12C) above, with C12G counted along it
Sequence of NRAS WT (P62937 whole entry): as the sequence (P62937 whole entry) above
Procedure: as §2, §3, §4, §5
as §3, with “Compound was” for “Compound is”, “allophycocyanin was” for “allophycocyanin is”, “a K-Ras:RAF” for “a Ras:RAF”, “complex were” for “complex are”

KRAS G12V = KRAS G12V (Homo sapiens (Human), UniProt P01116+P62937, G12V); experiment: Ras-Raf (BRAF RBD) disruption / FRET / MOA assay, KRAS G12V; type: biochemical; conditions: read-out: IC50* KRAS G12V FRET data
Sequence of KRAS G12V (P01116-2 other isoform, or with tags, fused parts or gaps G12V): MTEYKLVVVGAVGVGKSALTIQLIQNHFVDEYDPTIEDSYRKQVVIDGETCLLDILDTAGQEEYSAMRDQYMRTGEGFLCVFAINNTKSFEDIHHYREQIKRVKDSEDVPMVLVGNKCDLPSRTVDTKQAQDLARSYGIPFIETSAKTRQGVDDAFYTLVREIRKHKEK
Sequence of KRAS G12V (P62937 whole entry): as the sequence (P62937 whole entry) above
Outline: as §1

KRAS G12S = KRAS G12S (Homo sapiens (Human), UniProt P01116+P62937, G12S); experiment: Ras-Raf (BRAF RBD) disruption / FRET / MOA assay, KRAS G12S; type: biochemical; conditions: Ras-Raf disruption/FRET/MOA assay; class symbols; read-out: KRAS G12S FRET data IC50
Sequence of KRAS G12S (P01116-2 other isoform, or with tags, fused parts or gaps G12S): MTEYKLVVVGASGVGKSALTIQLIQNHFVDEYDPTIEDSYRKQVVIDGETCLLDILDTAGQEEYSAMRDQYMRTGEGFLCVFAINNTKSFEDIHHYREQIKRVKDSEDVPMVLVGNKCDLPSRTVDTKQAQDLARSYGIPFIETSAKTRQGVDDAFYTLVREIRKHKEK
Sequence of KRAS G12S (P62937 whole entry): as the sequence (P62937 whole entry) above
Outline: as §1

NRAS Q61K = NRAS Q61K (Homo sapiens (Human), UniProt P01111+P62937, Q61K); experiment: Ras-Raf (BRAF RBD) disruption / FRET / MOA assay, NRAS Q61K; type: biochemical; conditions: NRAS Q61K; Ras-Raf disruption/FRET/MOA assay; read-out: IC50* NRAS Q61K FRET data
Sequence of NRAS Q61K (P01111 whole entry Q61K): as the sequence (P01111 whole entry G12C) above, with C12G, Q61K counted along it
Sequence of NRAS Q61K (P62937 whole entry): as the sequence (P62937 whole entry) above
Procedure: as §2, §3, §4, §5
as §3, with “Compound was” for “Compound is”, “allophycocyanin was” for “allophycocyanin is”, “a K-Ras:RAF” for “a Ras:RAF”, “complex were” for “complex are”

K-Ras G12C = K-Ras G12C (Homo sapiens (Human), UniProt P01116+P62937, G12C); experiment: Ras-Raf (BRAF RBD) disruption / FRET / MOA assay, KRAS G12C; type: biochemical; conditions: KRAS G12C; Ras-Raf disruption/FRET/MOA assay; read-out: IC50* KRAS G12C FRET data
Sequence of K-Ras G12C (P01116-2 other isoform, or with tags, fused parts or gaps G12C): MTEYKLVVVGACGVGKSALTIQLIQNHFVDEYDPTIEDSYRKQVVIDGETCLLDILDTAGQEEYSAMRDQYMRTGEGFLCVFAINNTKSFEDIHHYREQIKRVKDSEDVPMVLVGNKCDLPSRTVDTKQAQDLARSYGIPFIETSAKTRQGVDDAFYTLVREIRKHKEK
Sequence of K-Ras G12C (P62937 whole entry): as the sequence (P62937 whole entry) above
Outline: as §1

[1] = test system: NCI-H358 cells (K-Ras G12C); experiment: Potency assay: pERK in NCI-H358 cells; type: cell-based, human; conditions: Homo sapiens, NCI-H358; H358 KRAS G12C; read-out: pERK EC50
Outline: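 pERK decrease read by AlphaLISA SureFire p-ERK1/2 or In-Cell Western after 4 h compound exposure at 37 °C, 5% CO2.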

Sequence of KRAS WT (P01116-2 other isoform, or with tags, fused parts or gaps): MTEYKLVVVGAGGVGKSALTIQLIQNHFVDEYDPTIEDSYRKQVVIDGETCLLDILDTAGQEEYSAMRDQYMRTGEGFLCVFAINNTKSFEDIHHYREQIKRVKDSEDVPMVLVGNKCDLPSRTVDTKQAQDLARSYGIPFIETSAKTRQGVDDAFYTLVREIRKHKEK
Sequence of KRAS WT (P62937 whole entry): as the sequence (P62937 whole entry) above

Structure (SMILES)	IC50 (KRAS WT)	IC50 (KRAS G12D)	IC50 (NRAS G12C)	IC50 (KRAS Q61H) [µM]	IC50 (K-Ras G13C)	IC50 (NCI-H358 (K-Ras G12C)) [µM]	IC50 (KRAS G13D)	IC50 (NRAS Q61R) [µM]	IC50 (NRAS WT) [µM]	IC50 (KRAS G12V)	IC50 (KRAS G12S)	IC50 (NRAS Q61K) [µM]	IC50 (K-Ras G12C)	EC50 [1] [µM]
C=CC(=O)N1CC[C@H](C(=O)N(C)[C@H](C(=O)N[C@H]2CC3=NN=C(S3)c3ccc4c(c3)c(c(-c3cccnc3[C@H](C)OC)n4CC)CC(C)(C)COC(=O)[C@@H]3CCCN(N3)C2=O)C(C)C)C1 (atropisomer, axis not shown) [Example A248]	> 10 µM	> 10 µM	1 to 10 µM	> 10	> 10 µM	> 1	> 10 µM	> 10	> 10	> 10 µM	> 10 µM	> 10	1 to 10 µM	–
CC#CC(=O)N1CC[C@H](C(=O)N(C)[C@H](C(=O)N[C@H]2Cc3cccc(c3)-c3ccc4c(c3)c(c(-c3cccnc3[C@H](C)OC)n4C#N)CC(C)(C)COC(=O)[C@@H]3CCCN(N3)C2=O)C(C)C)C1 (atropisomer, axis not shown) [Example A304]	> 10 µM	> 10 µM	> 10 µM	> 10	> 10 µM	0.1 to 1	> 10 µM	> 10	> 10	> 10 µM	> 10 µM	> 10	> 10 µM	–
C=CC(=O)N(C)C(=O)N(C)[C@H](C(=O)N[C@H]1Cc2nc(cs2)-c2ccc3c(c2)c(c(-c2cccnc2[C@H](C)OC)n3CC)CC(C)(C)COC(=O)[C@@H]2CCCN(N2)C1=O)C(C)C (atropisomer, axis not shown) [Example A355]	> 10 µM	> 10 µM	> 10 µM	> 10	> 10 µM	0.1 to 1	> 10 µM	> 10	> 10	> 10 µM	> 10 µM	> 10	> 10 µM	–
C=CC(=O)N1CC[C@H](C(=O)N(C)[C@H](C(=O)N[C@H]2Cc3cccc(c3)-c3ccc4c(c3)c(c(-c3cc(N5CCN(C)CC5)cnc3[C@H](C)OC)n4CC)CC(C)(C)COC(=O)[C@@H]3CCCN(N3)C2=O)C(C)C)C1 (single isomer, unassigned) [Example A328]	1 to 10 µM and > 10 µM	1 to 10 µM and > 10 µM	0.01 to 0.1 µM and 1 to 10 µM	0.1 to 1	0.1 to 1 µM and > 10 µM	–	1 to 10 µM and > 10 µM	1 to 10	1 to 10	1 to 10 µM and > 10 µM	0.1 to 1 µM and > 10 µM	1 to 10	0.01 to 0.1 µM and 1 to 10 µM	< 5
C=CC(=O)C1C[C@@H](C(=O)N(C)[C@H](C(=O)N[C@H]2Cc3cc(O)cc(c3)-c3ccc4c(n3)c(c(-c3ccccc3CCOC)n4CC)CC(C)(C)COC(=O)[C@@H]3CCCN(N3)C2=O)C(C)C)CN1 (stereo partly drawn) [Example A211]	> 10 µM	> 10 µM	100 nM to 1 µM and 1 µM to 10 µM and > 10 µM (2×)	1 to 10	> 10 µM	–	> 10 µM	> 10	1 to 10	1 µM to 10 µM and > 10 µM (3×)	1 µM to 10 µM and > 10 µM (3×)	1 to 10	100 nM to 1 µM and 1 µM to 10 µM and > 10 µM (2×)	< 5
C=CC(=O)N1CC[C@H](C(=O)N(C)[C@H](C(=O)N[C@H]2Cc3nc(cs3)-c3ccc4c(n3)c(c(-c3cccnc3[C@H](C)OC)n4CC)CC(C)(C)COC(=O)[C@@H]3CCCN(N3)C2=O)C(C)C)C1 [Example A347, (2S)-N-[(7S,13S)-21-ethyl-20-{2-[(1S)-1-methoxyethyl]pyridin-3-yl}-17,17-dimethyl-8,14-dioxo-15-oxa-4-thia-9,21,25,27,28-pentaazapentacyclo[17.5.2.1^{2,5}.1^{9,13}.0^{22,26}]octacosa-1(25),2,5(28),19,22(26),23-hexaen-7-yl]-3-methyl-2-{N-methyl-1-[(3S)-1-(prop-2-enoyl)pyrrolidin-3-yl]formamido}butanamide]	1 to 10 µM	> 10 µM	0.1 to 1 µM	1 to 10	1 to 10 µM	–	> 10 µM	1 to 10	1 to 10	> 10 µM	1 to 10 µM	1 to 10	0.1 to 1 µM	< 5

Now from value to compound:

IC50 (KRAS WT)	IC50 (KRAS G12D)	IC50 (NRAS G12C)	IC50 (KRAS Q61H) [µM]	IC50 (K-Ras G13C)	IC50 (NCI-H358 (K-Ras G12C)) [µM]	IC50 (KRAS G13D)	IC50 (NRAS Q61R) [µM]	IC50 (NRAS WT) [µM]	IC50 (KRAS G12V)	IC50 (KRAS G12S)	IC50 (NRAS Q61K) [µM]	IC50 (K-Ras G12C)	EC50 [1] [µM]	Structure (SMILES)
> 10 µM	> 10 µM	0.01 to 0.1 µM	> 10	1 to 10 µM	–	> 10 µM	> 10	> 10	> 10 µM	> 10 µM	> 10	0.01 to 0.1 µM	< 5	CCn1c(-c2cccnc2[C@H](C)OC)c2c3cc(ccc31)N1CCO[C@@H](C[C@H](NC(=O)[C@H](C(C)C)N3CC[C@@]4(CCN(C(=O)C#CC(C)(C)N(C)C)C4)C3=O)C(=O)N3CCC[C@H](N3)C(=O)OCC(C)(C)C2)C1 (atropisomer, axis not shown) [Example A614]
0.1 to 1 µM	1 to 10 µM	< 0.01 µM	0.1 to 1	0.01 to 0.1 µM	–	0.1 to 1 µM	0.1 to 1	0.1 to 1	0.1 to 1 µM	0.1 to 1 µM	0.1 to 1	< 0.01 µM	< 5	CCn1c(-c2cccnc2[C@H](C)OC)c2c3cc(ccc31)-c1cccc(c1)C[C@H](NC(=O)[C@H](C(C)C)N(C)C(=O)C1(F)CCN(C(=O)C#CC(C)(C)N(C)C)CC1)C(=O)N1CCC[C@H](N1)C(=O)OCC(C)(C)C2 (atropisomer, axis not shown) [Example A699]
> 10 µM	0.1 to 1 µM	0.01 to 0.1 µM	0.01 to 0.1	0.1 to 1 µM	–	0.1 to 1 µM	0.01 to 0.1	0.01 to 0.1	0.1 to 1 µM	0.01 to 0.1 µM	0.01 to 0.1	0.01 to 0.1 µM	< 5	C=CC(=O)N1CCO[C@@H]2CCN(C(=O)N(C)[C@H](C(=O)N[C@H]3Cc4nc(cs4)-c4ccc5c(c4)c(c(-c4cccnc4[C@H](C)OC)n5CC)CC(C)(C)COC(=O)[C@@H]4CCCN(N4)C3=O)C(C)C)CC21 (stereo partly drawn) [Example A596]

Source: US11566007B2, “Ras inhibitors” (Revolution Medicines, Inc., priority 2019, dated 2023)
